Test results as given in patent US10166290B2, “Intralesional (Intratumoral) dinitrochlorobenzene and associated compounds coadministered with checkpoint inhibitors for cancer treatment including treatment of metastatic cutaneous cancers” (priority 2017, dated 2019).
Where two headings read alike, the source gives them in different places.

Tests used:
[1] = Solubility of DNCB powder in acetone; format: physicochemical; settings: acetone diluent
From the text: (§1) A drug mask and latex gloves should be used when working with the DNCB powder while preparing its dilution and preparation for injection. […] It should be noted that DNCB powder is irritating, and is also immunogenic because of its haptene like properties. […] Therefore preadministration of lidocaine or another injectable anesthetic should be used to infiltrate the tumor nodule injection site prior to the injection into the same site of the DNCB solution in acetone.

[2] = Side effects of intralesional DNCB injections in the case reports; format: in vivo, human
From the text: Patient #3 was […] when they saw their local physician in upstate New York because of a pigmented posterior scalp lesion. Biopsy at that time was originally read as a (benign) blue nevus. The diagnosis was later felt to be incorrect after a recurrent lesion at the same location continued to advance, becoming larger and bleeding when they combed their hair. The reoccurance led to a rebiopsy, now one year after the original biopsy which had been read as benign. […] A re-review of the slides from the first biopsy was then carried out. […] The patient was referred to the Memorial Sloane Kettering Hospital in New York City and was prepared for urgent wide excision and skin grafting of their posterior scalp lesions. […] The operative procedure was cancelled and the patient was referred. At the time of presentation initial radiographic evaluation for distant disease was negative. They received intralesional DNCB injections of between two and 10 satellite lesions every 4-6 weeks. On several occasions histologic or fine needle aspiration biopsy was carried out to continue to confirm the malignant nature of the lesions before intralesional injection. Biopsies were also carried out in order to confirm the absence of malignant cells in some post-injection inflammatory sites. […] Four months after their presentation, they were noted to have fewer than usual malignant lesions for injection, and received only 2 DNCB injections. However 1 month later they underwent 10 DNCB injections. One month after that they underwent DNCB injections of 8 malignant scalp lesions. Another month later they underwent intralesional DNCB injection of 10 malignant satellite scalp lesions. One and two months later they underwent DNCB injection of 8 lesions on each of the two visits. Five weeks later and 5 weeks after that, 2 lesions were injected on each visit. Chest xray and distant metastatic evaluations remained negative. The injection sites were being routinely pre-anesthetized with 0.5% lidocaine injections containing 1:100,000 epinephrine a few minutes before the injections with DNCB in acetone. Nevertheless the DNCB injection sites were uncomfortable for 4-6 hours after the lidocaine wore off, frequently with slight residual “soreness” the next day. Their last-mentioned round of two injections took place 11 months after the beginning of their injections. No new lesions were apparent for the next 2 months. The patient reported that after this last mentioned round of two injections, there was residual scalp discomfort for 8 days. […] Their strength and activity remained normal, including frequent vigorous dancing with their spouse. They often brought photographs of their scalp taken between visits. They occasionally reported sensations in uninjected areas in the scalp, ear or mastoid regions. No new lesions were apparent for 2 months.
as §1

[3] = test system: progressive, locally metastatic melanoma; test: Intralesional DNCB injections into melanoma satellite / in transit metastatic lesions, case reports of three patients; format: in vivo, human
From the text: Following are the case reports of three long term (over ten year) survivors treated with intralesional DNCB in the setting of what was apparently uncontrollable, progressive, locally metastatic melanoma, ordinarily lethal as a result of subsequent progressive metastatic disease to the liver, lungs and/or brain.
Patient #1 was […] when they presented for treatment with progressive satellitosis and in transit metastases in their right leg. Four years previously they had undergone elsewhere a wide excision and split thickness skin grafting for a Clark Level IV melanoma of their right calf. […] One month prior to their presentation with satellitosis, recurrence had been noticed in the skin of the right popliteal fossa, and slightly higher. Their surgeon had planned to do a local excision in the region but had desisted when, at the time of their skin incision, multiple metastatic deposits were grossly visible in the deep dermal and subcutaneous regions. […] Two weeks after presentation, at the time of their first round of intralesional injections, the patient was noted to have 14 metastatic lesions in the posterior thigh region. These were each infiltrated with xylocaine and injected with DNCB. Each lesion was individually marked and followed. It was later estimated that 13 of the 14 lesions injected on this round ultimately regressed. A month after the first round of injections the patient underwent a second round of injections into five lesions on the posterior thigh. Four weeks after their second round of injections, a third round of injections was carried out for 10 lesions which had newly appeared. […] Accordingly the patient was taken to the operating room and an excision was carried out. […]
Patient #3 was […] when they saw their local physician in upstate New York because of a pigmented posterior scalp lesion. Biopsy at that time was originally read as a (benign) blue nevus. […] The reoccurance led to a rebiopsy, now one year after the original biopsy which had been read as benign. […]

[4] = test system: metastatic cutaneous tumor nodules; settings: some 53 rounds of intralesional treatment, published data (3), cited from earlier work

With `O=[N+]([O-])c1ccc(Cl)c([N+](=O)[O-])c1` [DNCB, 2, 4 dinitrochlorobenzene] the solubility in acetone [1] was “ready solubility”, the “constitutional symptoms such as fatigue, fever, or malaise” value ([2]; Patient #3) was “no constitutional symptoms” and the “duration of injection site discomfort after the lidocaine wore off” value ([2]; Patient #3, DNCB in acetone, sites pre-anesthetized with 0.5% lidocaine) was 4 to 6 h. The “facial swelling after injections” value ([2]; Patient #3, after round of 3 lesions injected) was “mild facial swelling for a few days”, the “duration of residual scalp discomfort” value ([2]; Patient #3, after round of two injections 11 months after beginning) was 8 days and the “local effect of the DNCB solution in acetone on injection” value ([2]; solution in acetone) was “irritating locally, and causes pain at the injection site”. The “time apparently disease free between last injections and death” value ([3]; Patient #1, after sixth round of injections) was 30 years, the “time patient remained well with no evidence of metastasis after end of injections” value ([3]; Patient #2) was 12 years and the “period with no apparent melanoma following last intralesional injection” value ([3]; Patient #3) was 18 year. For the same compound, the “side effects of intralesional treatment” value [4] was “local, consisting of erythema or ulceration, not life-threatening, and not associated with any internal organ damage or defects”, the “side effects of intralesional treatment” value ([4]; listed as dinitrochlorobenzene) was “without the undesirable checkpoint inhibitor potential side effect of attacks against normal organs” and the “side effects of intralesional treatment” value ([4]; listed as dinitrohalogenated compound) was “side effects essentially restricted to only side effects related to inflammation at the local injection sites”.
